Legend:
[1] = tested on: cHPK1 (87 amino acids of the C-terminal part of HPK1) displayed on phage; assay: Surface plasmon resonance analysis (BIACORE), HIS-tagged Ig-tail peptides on NTA sensor chip, cHPK1 phagemids injected; type: binding, murine; conditions: for decrease of binding capacity / relative binding affinity for cHPK1 compared to the wild type IgE tail: after the elution step, IgE measurement set to 100%; for Elution after 100 s, Relative RUs: binding of cHPK1 phage (10^9 cfu in TBS) to immobilised HIS-tagged Ig-tail, value remaining after 100 s of elution; for Injection after 60 s, Relative RUs: binding of cHPK1 phage (10^9 cfu in TBS, injected 60 s) to immobilised HIS-tagged Ig-tail, 400 (±25) RUs peptide coupled, value taken 60 s after injection; for Elution after 100 s, %: relative RUs after 100 s elution, IgE values were set to 100%
Source text: Phage Display Based Cloning of Proteins Interacting with the Cytoplasmic Tail of Membrane Immunoglobulins* ROLAND GEISBERGERa , MARTIN PRLICa , GERTRUDE ACHATZ-STRAUSSBERGERa , IRIS OBERNDORFERa , ELKE LUGERb , MARINUS LAMERSc , RETO CRAMERId , ULRICH APPENZELLERd , JURGEN WIENANDSe , MICHAEL BREITENBACHa , FATIMA FERREIRAa and GERNOT ACHATZa, a Department of Genetics and General Biology, Hellbrunnerstrae 34, A-5020 Salzburg, Austria; b DRFZ, Schumannstrasse 21/22, D-10117, Germany; c MPI for Immunobiology, Stubeweg 51, D-79108 Freiburg, Germany; d SIAF, Obere Strasse 22, CH-7270 Davos, Switzerland; e Department of Biochemistry I, Universitaetsstrasse 25, D-33615 Bielefeld, Germany. The reduced quantity and quality of serum immunoglobulins (sIgs) in mutant mice expressing truncated cytoplasmic tails of IgE and IgG1 indicate an active role for the cytoplasmic domains of mIgG1 and mIgE. We used phage display technology to identify candidate proteins able to interact with the cytoplasmic tail of mIgE. […] The interaction of HPK1 with the cytoplasmic domains of membrane immunoglobulins indicate an active role of the tails as part of an isotype specific signal transduction, independent from the Iga/Igb heterodimers, and may represent a missing link to upstream regulatory elements of HPK1 activation. Keywords: Antigen receptor; Cytoplasmic tail; HPK1; Phage display; Surface plasmon resonance INTRODUCTION The B cell antigen receptor (Vitetta et al., 1980; Reth, 1992) plays a central role in almost all processes along the developmental pathway of B cells, i.e. the generation, maturation, survival and activation of B cells. B cell antigen receptors (BCR) exist as a complex of membrane immunoglobulins (mIgs) and at least two other transmem- brane polypeptides, called Ig-a and Ig-b, which connect the antigen receptor to the tyrosine phosphorylation pathways in the cell. In this complex, mIgs serve as isotype specific antigen receptors on the surface of B lymphocytes. All isotypes of mIgs can form a complex with Ig-a and Ig-b (Venkitaraman et al., 1991) indicating an involvement of all isotypes in the signal transduction pathway. The earliest detectable biochemical event that follows BCR-aggregation is increased activity of protein tyrosine kinases (PTKs) of the Syk- and Src-family, which phosphorylate distinct tyrosine residues within conserved sequences present on the cytoplasmic portions of Ig-a and Ig-b (Reth, 1992). Phosphorylation of Ig-a and Ig-b occurs on the tyrosine residues of immuno receptor tyrosine-based activation motif (ITAM) and on the non-ITAM tyrosine 204 of Ig-a (Engels et al., 2001). Once phosphorylated, ITAMs provide binding sites for SRC homology 2 (SH2) domains of the Src and Syk PTKs and the adaptor protein SLP-65 (Engels et al., 2001), thus initiating several signaling pathways, the most important of which are the PLC-g, the Ras and the PI3-kinase pathways (Reth and Wienands, 1997; Kurosaki, 1999). Various external stimuli such as cytokine binding, interaction with other cells as well as stress factors including osmotic shock, heat or ionizing irradiation can influence the signaling cascade initiated by BCR engagement and they can contribute to differential alteration of the pattern of gene expression. Obviously, between Ig subclasses, there should be no differences in the transduction of signals regulating the central features of the immune system (Nussenzweig, 1997) such as the control of allelic exclusion, early cellular transitions and in the function of the membrane- bound immunoglobulin as a receptor for antigen capture ISSN 1044-6672 print q 2002 Taylor & Francis Ltd DOI: 10.1080/1044667031000137584 *Presented at the Proceedings of the 4th Germinal Center Conference, Groningen, The Netherlands, June 2002. Corresponding author. Address: Institut fur Genetik, Hellbrunnerstrae 34, A-5020 Salzburg, Austria. Tel.: 43-662-8044-5764. Fax: 43-662- 8044-144. […]

[2] = tested on: cHPK1 (87 amino acids of the C-terminal part of HPK1) displayed on phage; assay: Surface plasmon resonance analysis (BIACORE), IgE tail peptide covalently coupled to CM5 sensor chip, cHPK1 phagemids injected; type: binding, murine; conditions: CM5 sensor chip with covalently coupled IgE tail peptide (1683 RUs), random peptide as reference channel; 1 x 10^9 cHPK1 displaying phages injected over 200 s, washing with TBS
Source text: Phage Display Based Cloning of Proteins Interacting with the Cytoplasmic Tail of Membrane Immunoglobulins* ROLAND GEISBERGERa , MARTIN PRLICa , GERTRUDE ACHATZ-STRAUSSBERGERa , IRIS OBERNDORFERa , ELKE LUGERb , MARINUS LAMERSc , RETO CRAMERId , ULRICH APPENZELLERd , JURGEN WIENANDSe , MICHAEL BREITENBACHa , FATIMA FERREIRAa and GERNOT ACHATZa, a Department of Genetics and General Biology, Hellbrunnerstrae 34, A-5020 Salzburg, Austria; b DRFZ, Schumannstrasse 21/22, D-10117, Germany; c MPI for Immunobiology, Stubeweg 51, D-79108 Freiburg, Germany; d SIAF, Obere Strasse 22, CH-7270 Davos, Switzerland; e Department of Biochemistry I, Universitaetsstrasse 25, D-33615 Bielefeld, Germany. The reduced quantity and quality of serum immunoglobulins (sIgs) in mutant mice expressing truncated cytoplasmic tails of IgE and IgG1 indicate an active role for the cytoplasmic domains of mIgG1 and mIgE. We used phage display technology to identify candidate proteins able to interact with the cytoplasmic tail of mIgE. […] The interaction of HPK1 with the cytoplasmic domains of membrane immunoglobulins indicate an active role of the tails as part of an isotype specific signal transduction, independent from the Iga/Igb heterodimers, and may represent a missing link to upstream regulatory elements of HPK1 activation. […]

[3] = target: HIS-tagged cytoplasmic tail of membrane IgE (28 amino acids) (mouse); assay: SPR; BIACORE CM5 chip; IgE-tail peptide covalently coupled to Fc1 (1683 RUs), random peptide (1704 RUs) on Fc2 as reference; 1 x 10^9 cfu phagemids in TBS injected, then washing with TBS; relative response
[4] = target: HIS-tag deficient random peptide; assay: SPR; BIACORE NTA sensor chip; HIS-tagged Ig-tail peptides (150 nM in 0.01 M Hepes, 0.15 M NaCl, 50 mM EDTA, 0.005% surfactant P20) captured via the HIS-tag, 400 (+/-25) RUs each; 10^9 cfu cHPK1 phage in TBS injected 1 min, 100 s elution; relative RUs, IgE set to 100%
[5] = target: HIS-tagged cytoplasmic tail of IgG1 (mouse); assay: as above
[6] = target: HIS-tagged cytoplasmic tail of IgG2a; assay: as above
[7] = target: HIS-tagged cytoplasmic tail of IgG2b; assay: as above
[8] = target: HIS-tagged cytoplasmic tail of IgG3; assay: as above
[9] = target: HIS-tagged cytoplasmic tail of IgM (KVK); assay: as above
[10] = target: HIS-tagged cytoplasmic tail of membrane IgE (28 amino acids) (mouse); assay: as above
[11] = target: HIS-tagged modified IgE cytoplasmic tail lacking the four amino acids T-F-Q-D (IgEDTFQD) (mouse); assay: as above

| Substance | decrease of binding capacity / relative binding affinity for cHPK1 compared to the wild type IgE tail [1] | Elution after 100 s, Relative RUs [1] [RUs] | Injection after 60 s, Relative RUs [1] [RUs] | Elution after 100 s, % [1] [%] | also measured |
| --- | --- | --- | --- | --- | --- |
| (6 H) KVKWIFSSVVELKQKISPDYRNMI- GQGA [IgG2b, HIS-tagged synthetic cytoplasmic tail of IgG2b] | about 60% | 72 | 276 | 41 | – |
| (6 H) KVKWIFSSVVELKQTISPDYRNMI- GQGA [IgG2a, HIS-tagged synthetic cytoplasmic tail of IgG2a] | about 60% | 68 | 284 | 38 | – |
| (6 H) KVKWIFSSVVELKQTLVPEYKNMI- GQAP [IgG1, HIS-tagged synthetic cytoplasmic tail of IgG1] | – | 128 | 819 | 72 | – |
| (6 H) KVKWIFSSVVQVKQTAIPDYRNMI- GQGA [IgG3, HIS-tagged synthetic cytoplasmic tail of IgG3] | – | 120 | 744 | 67 | – |
| (6 H) KVKWVFSTPMQDTPQYA- NILQTRA [IgEDTFQD, HIS-tagged IgE cytoplasmic tail peptide lacking the TFQD amino acids] | 47% | 94 | 563 | 53 | – |
| HHHHHHKVKWVFSTPMQDTPQTFQDYA- NILQTRA [IgE, HIS-tagged synthetic peptide of the 28 amino acid long cytoplasmic tail of mIgE] | – | 177 | 691 | – | relative increase in affinity after the elution step [2]: 500 RUs |
| SPHRCRIHPRPSKTMPTSSRPGH- RCDASTH [Random peptide, HIS-tag deficient random peptide used as control, reference compound] | – | ~0 | 310 | ~0 | – |
| cHPK1, 87 amino acids of the C-terminal part of murine hematopoietic progenitor kinase 1 (HPK1), displayed on phage (domain or fragment) | – | – | – | – | relative RUs after the elution step [3]: 500 RUs; relative RUs 60 s after injection [4]: 310 RU; % of the IgE tail's RUs after elution [5]: 72%; relative RUs 60 s after injection [5]: 819 RU; relative RUs 100 s after elution [5]: 128 RU; % of the IgE tail's RUs after elution [6]: 38%; relative RUs 60 s after injection [6]: 284 RU; relative RUs 100 s after elution [6]: 68 RU; % of the IgE tail's RUs after elution [7]: 41%; relative RUs 60 s after injection [7]: 276 RU; relative RUs 100 s after elution [7]: 72 RU; % of the IgE tail's RUs after elution [8]: 67%; relative RUs 60 s after injection [8]: 744 RU; relative RUs 100 s after elution [8]: 120 RU; relative RUs 60 s after injection [9]: 617 RU; relative RUs 60 s after injection [10]: 691 RU; relative RUs 100 s after elution [10]: 177 RU; % of the IgE tail's RUs after elution [11]: 53%; relative RUs 60 s after injection [11]: 563 RU; relative RUs 100 s after elution [11]: 94 RU |

Source: paper PMC2276102, “Phage Display Based Cloning of Proteins Interacting with the Cytoplasmic Tail of Membrane Immunoglobulins” (Developmental Immunology, 2002)
